Assay results taken from patent US8354265B2, “Chemicals promoting the growth of N-acylhomoserine lactone-degrading bacteria” (Centre National de la Recherche Scientifique, priority 2007, dated 2013).
Entries after “also recorded” stand apart in the source; their conditions may differ.

What was measured:
[1] = system: NAHL-degrading rhizobacteria of potato rhizosphere; test: Preliminary experiment in planted hydroponic batches: level and diversity of NAHL-degrading rhizobacteria (Table 1); assay type: in vivo, Solanum tuberosum var. Allians
Experimental: The non sterile batches (40×60×8 cm) contained 13 L of the nutritive solution Hydrobloom (Cellmax, UK) with Nitrogen at 0.80 g/L, Phosphore at 0.56 g/L and Potassium at 1.48 g/L as major components. The solution was diluted from a concentrated stock solution (×250) with non sterile water from the public water system. One hundred plants of Solanum tuberosum var. Allians, which were recovered from cultures performed under sterile conditions, were placed into holes (3 cm space to each other) of batch covers. Planted batches were placed in the greenhouse (Comité Nord Plants de Pomme de Terre, Bretteville-du-Grand-Caux) under natural light at 10-15° C. (night) and 25-30° C. (day). […] An untreated batch was used as a control. One gram of roots (fresh weight) was resuspended in 10 mL of sterile MgSO4 10 mM, diluted and spread on TSA and King B plates to isolate total cultivable bacteria and fluorescent Pseudomonas, respectively. Three samples were analyzed from each batch at each time D0, D14 and D28; from each sample, thirty isolates from TSA plates and thirty fluorescent isolates from King B plates were individually tested from production and inactivation of NAHL signal.
(§1) Bacterial isolates grown in 96-microwell plates were individually tested from production of NAHL with the A. tumefaciens biosensor NT1 (pZNLR4) and the inactivation of the C6-HSL signal, as described previously (d'Angelo-Picard et al. 2004).
At least 400 bp were submitted to the NCBI database.

[2] = system: acyl-HSL degrading strains of potato rhizosphere; test: GCL treatment of potato plants in long-term hydroponic culture (FIG. 12); assay type: in vivo, Solanum tuberosum; design: dose or concentration left out as unconfirmed; conditions: 0.4 at D0, D18 and D49; at D28, D49 and D56
Experimental: The plants were cultivated in hydroponic batches from D0 to D17, then transferred into hydroponic system allowing the long term culture until tuberisation. At each time, three samples (D0 and D7) and four samples (D28, D49 and D56) were analyzed: the number of CFU/g of roots was estimated (B), as well as the percentage of acyl-HSL-producing (C) and acyl-HSL degrading strains. Different letters indicate a significative difference (Student's t-test; α=0.05) between the two conditions, untreated and GCL-treated.
The plants were cultivated in hydroponic batches from D0 to D17, then transferred into hydroponic system allowing the long term culture until tuberisation.

[3] = system: Erwinia carotovora subsp. atroseptica 6276; test: Maceration assay on potato tubers (biocontrol activity of consortia); assay type: in vivo; conditions: potato tubers infected with mix of Erwinia carotovora 6276 and consortia
Description: FIG. 6: Maceration assay on potato tubers.
The Mannitol-, 6CL-, GCL-, and HTN-consortia were compared for their capacity to inactivated OC8-HSL, the major NAHL produced by the plant pathogen Erwinia carotovora subsp. atroseptica 6276, as well as for their biocontrol activity against this pathogen in potato maceration assay.

[4] = system: bacterial isolates from untreated and GCL-treated batches; test: Assimilation of GCL as sole carbon source versus NAHL inactivation by isolates (FIG. 10); assay type: cell-based; conditions: untreated and GCL-treated (0.1 and 0.4 mL/L) batches; D14 and D28
Experimental: Each disk represents 90 isolates from untreated or GCL-treated (0.1 and 0.4 mL/L) batches 14 days (D14) and 28 days (D28) after the beginning of the treatment.
as §1
Results were cross-examined with respect to the ability of each strain to inactivate (or not) NAHL signal.

[5] = system: bacteria recovered from the consortia; test: NAHL production and inactivation by isolates recovered from the consortia, with rrs identification; assay type: cell-based

CCC1CCC(=O)O1 (stereo not shown) [GCL, gamma-caprolactone]
Log CFU/gram of root (fresh weight) ([1]; D0 (before treatment)): 8.0 ± 7.5 Log CFU/gram of root (fresh we | NAHL degraders (%) ([1]; D0 (before treatment)): 16.7 ± 0.1 % | NAHL producers (%) ([1]; D0 (before treatment)): 6.7 ± 1.0% | rrs-identified NAHL-degraders: Delftia ([1]; D0, of 8 isolates): 3 | rrs-identified NAHL-degraders: Pseudomonas ([1]; D0, of 8 isolates): 2 | rrs-identified NAHL-degraders: Rhodococcus ([1]; D0, of 8 isolates): 3 | Log CFU/gram of root (fresh weight) ([1]; D28, 0.1 mL/L): 10.5 ± 9.8 Log CFU/gram of root (fresh we | NAHL degraders (%) ([1]; D28, 0.1 mL/L): 33.3 ± 4.0 % | NAHL producers (%) ([1]; D28, 0.1 mL/L): 11.1 ± 1.5% | identified genera of NAHL-degrading bacteria ([1]; D28, 0.1 mL/L): 3 | rrs-identified NAHL-degraders: Bacillus ([1]; D28, 0.1 mL/L, of 8 isolates): 1 | rrs-identified NAHL-degraders: Delftia ([1]; D28, 0.1 mL/L, of 8 isolates): 2 | rrs-identified NAHL-degraders: Rhodococcus ([1]; D28, 0.1 mL/L, of 8 isolates): 5 | effect on the percentage of acyl-HSL degraders [2]: clear effect | biocontrol activity of the consortia against E. carotovora 6276 [3]: biocontrol activity was observed; also recorded: showed biocontrol activity | occurrence of bacteria both assimilating GCL and inactivating NAHL [4]: only detected in the treated batches | NAHL-inactivating bacteria recovered from consortia [5]: recovered | NAHL-degrading isolates related to Chryseobacterium ([5]; 6CL and GCL consortia together): 10% | NAHL-degrading isolates related to Delftia ([5]; 6CL and GCL consortia together): 80 % of the identified strains | NAHL-degrading isolates related to Ralstonia ([5]; 6CL and GCL consortia together): 3% | NAHL-degrading isolates related to Rhodococcus ([5]; 6CL and GCL consortia together): 7% | NAHL-producing bacteria among isolates of the consortia ([5]; 280 isolates from 280 independent enrichments): none
